One block for each compound: values may come before it. Peptide text beside a SMILES is read from it. * marks the point of attachment. X1 = Nc1ccccc1NC(=O)c1ccc(CC(=O)*)cc1
What was measured:
HDAC [1] = experiment: Fluorescence-based HDAC inhibition assay in solution using HeLa nuclear extracts; assay type: biochemical
HDAC [2] = experiment: as above
[3] = hydroxamic acid-based multivalent HDACi, HeLa nuclear extracts, TosGPK(Ac)-AMC substrate 43 µM, 45 min at 37 °C, average of at least 2 experiments
[4] = benzamide-based multivalent HDACi, procedure of Example 8 (HeLa nuclear extracts, TosGPK(Ac)-AMC substrate)

EC50 (HDAC [1]; [3]): 0.52 ± 0.11 µM
Compound: O=C(CCCCCCC(=O)Nc1ccccc1NC(=O)CCCCCCC(=O)NO)NO [MuH2322, N^1,N^1'-(1,2-Phenylene)bis(N^8-hydroxyoctanediamide)]

EC50 (HDAC [1]; [3]): 2.25 ± 0.65 µM
Compound: O=C(CCCCCCC(=O)Nc1cc(NC(=O)CCCCCCC(=O)NO)c(NC(=O)CCCCCCC(=O)NO)cc1NC(=O)CCCCCCC(=O)NO)NO [MuH2344, N1,N1',N1",N1‴-(Benzene-1,2,4,5-tetrayl)tetrakis(N8-hydroxyoctanediamide)]

EC50 (HDAC [2]; [3]): 0.23 ± 0.07 µM
Compound: RAFT-(N^1-(4-(2-amino-2-oxoethyl)phenyl)-N^8-hydroxyoctane diamide))2 [MuH2357]

EC50 (HDAC [2]; [3]): 2.84 µM
Compound: C[C@@H]1NC(=O)[C@H](CCCCNC(=O)CCCCCCC(=O)NO)NC(=O)CNC(=O)[C@@H]2CCCN2C(=O)[C@H](CCCCNC(=O)CCCCCCC(=O)NO)NC(=O)[C@H](C)NC(=O)[C@H](CCCCNC(=O)CCCCCCC(=O)NO)NC(=O)CNC(=O)[C@@H]2CCCN2C(=O)[C@H](CCCCNC(=O)CCCCCCC(=O)NO)NC1=O [MuH2120, RAFT-(methyl 8-(hydroxyamino)-8-oxooctanoate)4]

EC50 (HDAC [2]; [4]): 1.22 ± 0.7 µM
Compound: RAFT-(4-(2-((5-X-5-oxopentyl)amino)-2-oxoethyl)-N-(2-aminophenyl)benzamide)4 [MuH2220]

EC50 (HDAC [1]; [3]): 0.06 ± 0.01 µM
Compound: O=C(CCCCCCC(=O)Nc1cccc(NC(=O)CCCCCCC(=O)NO)c1)NO [MuH2324, N^1,N^1'-(1,3-Phenylene)bis(N8-hydroxyoctanediamide)]
increase in activity compare to the SAHA (HDAC [1]; HDAC inhibition, versus monovalent inhibitor SAHA): 14 fold

EC50 (HDAC [1]; [4]): 9.21 ± 2.55 µM
Compound: Nc1ccccc1NC(=O)c1ccc(CC(=O)NCCCNC(=O)Cc2ccc(C(=O)Nc3ccccc3N)cc2)cc1 [MuH2320, 4,4'-((Propane-1,3-diylbis(azanediyl))bis(2-oxoethane-2,1-diyl))bis(N-(2-aminophenyl)benzamide)]

EC50 (HDAC [2]; [3]): 5.76 µM
Compound: C[C@@H]1NC(=O)[C@H](CCCCNC(=O)CCCCCCC(=O)NO)NC(=O)CNC(=O)[C@@H]2CCCN2C(=O)[C@H](CCCCNC(=O)CCCCCCC(=O)NO)NC(=O)[C@H](C)NC(=O)[C@H](CCCCNC(=O)CCCCCCC(=O)NO)NC(=O)CNC(=O)[C@@H]2CCCN2C(=O)[C@H](CCCCNC(=O)CCCCCCC(=O)NO)NC1=O [MuH2121, RAFT-(methyl 8-(hydroxyamino)-8-oxooctanoate)4]

EC50 (HDAC [1]; [4]): 7.23 ± 2.07 µM
Compound: Nc1ccccc1NC(=O)c1ccc(CNC(=O)OCc2cccnc2)cc1 [MS275, reference compound]

EC50 (HDAC [1]; [3]): 0.23 ± 0.16 µM
Compound: O=C(CCCCCCc1cn(CCCCCCC(=O)NO)nn1)NO [MuH2321, 7,7'-(1H-1,2,3-Triazole-1,4-diyl)bis(N-hydroxyheptanamide)]

EC50 (HDAC [1]; [4]): 31.5 ± 29.9 µM
Compound: Nc1ccccc1NC(=O)CCCCCCC(=O)Nc1cccc(NC(=O)CCCCCCC(=O)Nc2ccccc2N)c1 [MuH2345, N^1,N^1'-(1,3-Phenylene)bis(N8-(2-aminophenyl)octanediamide)]

Compound: C[C@@H]1NC(=O)CNC(=O)[C@@H]2CCCN2C(=O)[C@H](CCCCNC(=O)Cc2ccc(C(=O)Nc3ccccc3N)cc2)NC(=O)[C@H](C)NC(=O)[C@H](C)NC(=O)CNC(=O)[C@@H]2CCCN2C(=O)[C@H](CCCCNC(=O)Cc2ccc(C(=O)Nc3ccccc3N)cc2)NC(=O)[C@H](C)NC1=O [MuH2224, RAFT-(4-(2-X-2-oxoethyl)-N-(2-aminophenyl)benzamide)2] (cyclo(AAK(X1)PGAAK(X1)PG))
EC50 (HDAC [2]; [4]): 7.81 ± 5.27 µM

EC50 (µM) (HDAC [2]; [3]): Inact
Compound: RAFT-(4-pentyn-1-ol)4 [MuH2123, reference compound]

EC50 (HDAC [2]; [4]): 1.59 ± 0.87 µM
Compound: RAFT-(4-(2-X-2-oxoethyl)-N-(2-aminophenyl)benzamide)4 [MuH2122]

EC50 (HDAC [1]; [3]): 0.48 ± 0.32 µM
Compound: O=C(CCCCCCC(=O)Nc1ccc(NC(=O)CCCCCCC(=O)NO)cc1)NO [MuH2323, N^1,N^1'-(1,4-Phenylene)bis(N8-hydroxyoctanediamide)]

EC50 (HDAC [2]; [4]): 1.76 ± 0.89 µM
Compound: RAFT-(N-(2-aminophenyl)-4-(2-(((1-X-1H-1,2,3-triazol-4-yl)methyl)amino)-2-oxoethyl) benzamide)4 [MuH2222]

— EP4574212A1, “HISTONE DEACETYLASE INHIBITORS” (Centre National de la Recherche Scientifique, priority 2023, dated 2025)
